Test results from US20110039921A1 (priority 2007, published 2011).
Like-named read-outs stand apart in the source and are kept apart here.

Legend:
Lewis lung cancer = assay: Inhibitory activity on mice Lewis lung cancer
[1] = tested on: A549: the human lung adenocarcinoma cell strain; assay: cells; type: cell-based
Method: (§1) Experiment 1. Cytotoxicity Screening Assay at Cell Level of Compounds of this Invention
(§2) Tumor cells at log phase were incubated on 96-well plates at a density of 1˜1.2×10^4 cells/ml, 100 μl/well. 24 h later, treatment cells were exposed to the tested agents at different concentrations. Each tested agents had 4˜5 doses, and each dose had at least 3 parallel wells. Control cells were exposed to solvents in the same volume with treat agents. Cells were cultured at 37° C. in a cell incubator with 5% CO2 and 95% air atmosphere. After 4 days of culture, the incubation medium was removed, then 200 μl 0.2% MTT (prepared by RPMI 1640) was added to each well and the plates were incubated at 37° C. for 4 hours. The supernatant was discarded and dissolved the resulting formazen product with 200 μl DMSO in each well. The absorbance at a reference wavelength of 450 nm and a test wavelength of 570 nm was read on a microplate reader after tenderly shaking. Calculated drug inhibitory rate using the following equation and IC50, taking solvent exposure tumor cells as control cells.

[2] = tested on: KB: the human oral epithelium cancer cell strain; assay: cells; type: cell-based
Method: as §1, §2

BGC-823 = assay: MTT cytotoxicity assay, BGC-823 cells; type: cell-based, human; conditions: Table 2, read-out: IC50 (mol/L) BGC-823
Method: as §1, §2

Bel-7402 = assay: MTT cytotoxicity assay, Bel-7402 cells; type: cell-based; conditions: Table 2, read-out: IC50 (mol/L) Bel-7402
Method: as §1, §2

[3] = tested on: human lung adenocarcinoma A549-nude mice-xenograft tumor; assay: Growth inhibition on A549-nude mice-xenograft tumor
Text: (§3) Genera: BALB/c (nu-nu) nude mice
(§4) After one-week accommodation, animals were given subcutaneous implantation of the human lung adenocarcinoma A549 or the human ovarian cancer A2780 or the human gastric carcinoma BGC-823 cells. Animals were grouped randomly (d0) when the tumors reached 100-300 mm^3. […] Animal weights and tumor measurements were taken every […] and recorded. At the end of the study (d30 or d35), nude mice were euthanized and weighed. After the animals were sacrificed, tumor tissue was cut and weighed. Tumor volume was determined using the following equation: […]

[4] = tested on: human gastric carcinoma BGC-823 nude mice-xenograft tumor; assay: Growth inhibition on BGC-823-nude mice-xenograft tumor; conditions: for Tv x ± SD dn: dn 30 days after the first administration
Text: as §3, §4

[5] = tested on: human ovarian cancer A2780-nude mice-xenograft tumor; assay: Growth inhibition on A2780-nude mice-xenograft tumor; conditions: for Tv x ± SD dn: dn: 30 days after the first administration
Text: as §3, §4

[6] = tested on: human mammary adenocarcinoma cell strain MCF-7; assay: MTT cytotoxicity assay, MCF-7 cells; type: cell-based; conditions: Table 2, read-out: IC50 (mol/L) MCF-7
Method: as §1, §2

BGC-803 = assay: MTT cytotoxicity assay, BGC-803 cells; type: cell-based; conditions: Table 2, read-out: IC50 (mol/L) BGC-803
Method: as §1, §2

HCT-8 = assay: MTT cytotoxicity assay, HCT-8 cells; type: cell-based; conditions: Table 2, read-out: IC50 (mol/L) HCT-8
Method: as §1, §2

[7] = tested on: A549/Taxol: the taxol-resistant substrain of A549; assay: cells; type: cell-based, human
Method: as §1, §2

[8] = tested on: KB/V: the vincristine-resistant substrain of KB; assay: cells; type: cell-based, human; conditions: Table 1; MTT, 4 days of culture; read-out: IC50(M) KB/V
Method: as §1, §2

A2780 = assay: MTT cytotoxicity assay, A2780 cells; type: cell-based, human; conditions: Table 2, read-out: IC50 (mol/L) A2780
Method: as §1, §2

[9] = tested on: MCF-7/D: adriamycin-resistant subline of the human mammary adenocarcinoma cell strain MCF-7; assay: MTT cytotoxicity assay, MCF-7/D cells; type: cell-based; conditions: Table 2, read-out: IC50 (mol/L) MCF-7/D
Method: as §1, §2

CC=C(C)C(=O)NC(c1ccccc1)C(O)C(=O)OC1CC2(O)C(OC(=O)c3cccc(N=[N+]=[N-])c3)C3C4(OC(C)=O)COC4CC(OC(=O)CC)C3(C)C(=O)C(O)C(=C1C)C2(C)C (stereo not drawn) [Example 8, 2-(3-azidobenzoyl)-7-propionyl-10-deacetyl-cephalomannine]
Inhibition (%) (Lewis lung cancer; 2.5 × 8 mg/kg): 27.77% | Tumor weight (g) Average (Lewis lung cancer; 2.5 × 8 mg/kg): 2.07 g | Body weight (g) end (Lewis lung cancer; 2.5 × 8 mg/kg): 22.0 g | Body weight (g) initial (Lewis lung cancer; 2.5 × 8 mg/kg): 20.0 g | Inhibition (%) (Lewis lung cancer; 5 × 8 mg/kg): 32.46% | Tumor weight (g) Average (Lewis lung cancer; 5 × 8 mg/kg): 1.96 g | Body weight (g) end (Lewis lung cancer; 5 × 8 mg/kg): 20.4 g | Body weight (g) initial (Lewis lung cancer; 5 × 8 mg/kg): 20.0 g | Inhibition (%) (Lewis lung cancer; 10 × 8 mg/kg): 76.08% | Tumor weight (g) Average (Lewis lung cancer; 10 × 8 mg/kg): 0.69 g | Body weight (g) end (Lewis lung cancer; 10 × 8 mg/kg): 16.8 g | Body weight (g) initial (Lewis lung cancer; 10 × 8 mg/kg): 19.5 g | inhibition of tumor growth, conclusion in words (Lewis lung cancer; Lewis lung cancer, comparison with taxol): stronger effect | IC50 ([1]; Table 1, MTT, 4 days of culture, read-out: IC50(M) A549): 9.36e-09 M | IC50 ([1]; Table 2, MTT assay, read-out: IC50 (mol/L) A549): 9.4e-10 M | IC50 ([2]; Table 1, MTT, 4 days of culture, read-out: IC50(M) KB): 2.39e-09 M | IC50 ([2]; Table 2, MTT assay, read-out: IC50 (mol/L) KB): 4.9e-10 M | IC50 (BGC-823): 1.3 nM | IC50 (Bel-7402): 8.7 nM | RTV ([3]; 7.5 × 3 mg/kg): 7.2 | T/C (%) ([3]; 7.5 × 3 mg/kg): 60.7% | Body weight (g) end ([3]; 7.5 × 3 mg/kg): 21.8 g | Tv x ± SD end ([3]; 7.5 × 3 mg/kg): 3090 ± 900 | Body weight (g) initial ([3]; 7.5 × 3 mg/kg): 21.6 g | Tv x ± SD initial ([3]; 7.5 × 3 mg/kg): 431 ± 94 | RTV ([3]; 15 × 3 mg/kg): 6.7 | T/C (%) ([3]; 15 × 3 mg/kg): 56.7% | Body weight (g) end ([3]; 15 × 3 mg/kg): 25.1 g | Tv x ± SD end ([3]; 15 × 3 mg/kg): 2897 ± 950 | Body weight (g) initial ([3]; 15 × 3 mg/kg): 22.4 g | Tv x ± SD initial ([3]; 15 × 3 mg/kg): 432 ± 115 | RTV ([3]; 30 × 3 mg/kg): 4.0 | T/C (%) ([3]; 30 × 3 mg/kg): 33.56% | Body weight (g) end ([3]; 30 × 3 mg/kg): 23.2 g | Tv x ± SD end ([3]; 30 × 3 mg/kg): 1646 ± 450 | Body weight (g) initial ([3]; 30 × 3 mg/kg): 21.8 g | Tv x ± SD initial ([3]; 30 × 3 mg/kg): 415 ± 85 | inhibition of tumor growth, conclusion in words ([3]; A549 nude mice-xenograft tumor, comparison with taxol): stronger effect | RTV ([4]; 7.5 × 4 mg/kg i.p.): 17.45 | T/C (%) ([4]; 7.5 × 4 mg/kg i.p.): 63.84% | Tv x ± SD d0 ([4]; 7.5 × 4 mg/kg i.p.): 101.1 ± 17.4 | Tv x ± SD dn ([4]; 7.5 × 4 mg/kg i.p.): 2057.5 ± 1756.4 | Body weight (g) end ([4]; 7.5 × 4 mg/kg i.p.): 26.1 g | Body weight (g) initial ([4]; 7.5 × 4 mg/kg i.p.): 24.7 g | RTV ([4]; 15 × 4 mg/kg i.p.): 9.27 | T/C (%) ([4]; 15 × 4 mg/kg i.p.): 33.90% | Tv x ± SD d0 ([4]; 15 × 4 mg/kg i.p.): 104.4 ± 16 | Tv x ± SD dn ([4]; 15 × 4 mg/kg i.p.): 1156.6 ± 403.9 | Body weight (g) end ([4]; 15 × 4 mg/kg i.p.): 23.8 g | Body weight (g) initial ([4]; 15 × 4 mg/kg i.p.): 25.2 g | RTV ([4]; 30 × 4 mg/kg i.p.): 0.47 | T/C (%) ([4]; 30 × 4 mg/kg i.p.): 4.57% | Tv x ± SD d0 ([4]; 30 × 4 mg/kg i.p.): 99.7 ± 34.3 | Tv x ± SD dn ([4]; 30 × 4 mg/kg i.p.): 177.1 ± 199.0 | Body weight (g) end ([4]; 30 × 4 mg/kg i.p.): 23.9 g | Body weight (g) initial ([4]; 30 × 4 mg/kg i.p.): 25.0 g | inhibition of tumor growth, conclusion in words ([4]; BGC-823 nude mice-xenograft tumor, comparison with taxol): equal to taxol | RTV ([5]; 7.5 × 4 mg/kg i.p.): 7.8 | T/C (%) ([5]; 7.5 × 4 mg/kg i.p.): 80.3% | Tv x ± SD d0 ([5]; 7.5 × 4 mg/kg i.p., d0): 127.6 ± 65.9 | Tv x ± SD dn ([5]; 7.5 × 4 mg/kg i.p.): 989.3 ± 658.9 | Body weight (g) end ([5]; 7.5 × 4 mg/kg i.p.): 25.5 g | Body weight (g) initial ([5]; 7.5 × 4 mg/kg i.p.): 22.4 g | RTV ([5]; 15 × 4 mg/kg i.p.): 6.6 | T/C (%) ([5]; 15 × 4 mg/kg i.p.): 68.1% | Tv x ± SD d0 ([5]; 15 × 4 mg/kg i.p., d0): 130.2 ± 36.0 | Tv x ± SD dn ([5]; 15 × 4 mg/kg i.p.): 855.6 ± 500.3 | Body weight (g) end ([5]; 15 × 4 mg/kg i.p.): 25.2 g | Body weight (g) initial ([5]; 15 × 4 mg/kg i.p.): 22.0 g | RTV ([5]; 30 × 4 mg/kg i.p.): 3.4 | T/C (%) ([5]; 30 × 4 mg/kg i.p.): 34.9% | Tv x ± SD d0 ([5]; 30 × 4 mg/kg i.p., d0 (first administration)): 157.1 ± 56.2 | Tv x ± SD dn ([5]; 30 × 4 mg/kg i.p.): 529.6 ± 454.8 | Body weight (g) end ([5]; 30 × 4 mg/kg i.p.): 22.3 g | Body weight (g) initial ([5]; 30 × 4 mg/kg i.p.): 22.0 g | inhibition of tumor growth, conclusion in words ([5]; A2780 nude mice-xenograft tumor, comparison with taxol): stronger effect | IC50 [6]: 0.68 nM | IC50 (BGC-803): 2.4 nM | IC50 (HCT-8): 0.32 nM | IC50 ([7]; Table 2, MTT assay, read-out: IC50 (mol/L) A549/T): 1.4 nM | IC50 ([7]; read-out: IC50(M) A549/Taxol, Table 1, MTT, 4 days of culture): > 1000 nM | IC50 [8]: 2.73e-07 M | IC50 (A2780): 3.6 nM | IC50 [9]: 270 nM
